Data taken from patent EP0938471B1, “THE PREPARATION AND USE OF ORTHO-SULFONAMIDO ARYL HYDROXAMIC ACIDS AS MATRIX METALLOPROTEINASE AND TACE INHIBITORS” (priority 1996, dated 1998).
Like-named read-outs stand apart in the source and are kept apart here.

What was measured:
Type in all cases: biochemical
MMP-9 = MMP-9 (Homo sapiens, UniProt P14780); assay: MMP-9 inhibition (thiopeptide or fluorescent peptide substrate assay)
MMP-1 = target: T1, MMP-1 (Homo sapiens, UniProt P03956); assay: MMP-1 inhibition (thiopeptide or fluorescent peptide substrate assay)
T1 sequence (P03956 100-469): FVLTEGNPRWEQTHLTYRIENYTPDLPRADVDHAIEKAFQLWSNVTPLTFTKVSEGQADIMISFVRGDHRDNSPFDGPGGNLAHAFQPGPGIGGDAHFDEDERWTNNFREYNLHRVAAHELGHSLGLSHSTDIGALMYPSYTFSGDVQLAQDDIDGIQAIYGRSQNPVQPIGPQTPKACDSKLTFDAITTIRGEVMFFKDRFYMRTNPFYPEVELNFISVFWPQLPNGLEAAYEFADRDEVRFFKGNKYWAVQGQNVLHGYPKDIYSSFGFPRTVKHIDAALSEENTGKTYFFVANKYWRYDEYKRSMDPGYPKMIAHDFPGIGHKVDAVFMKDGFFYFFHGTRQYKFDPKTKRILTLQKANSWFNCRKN
Method: The enzyme activity is measured by the rate of the color increase. The thiopeptide substrate is made up fresh as a 20 mM stock in 100% DMSO and the DTNB is dissolved in 100% DMSO as a 100 mM stock and stored in the dark at room temperature. Both the substrate and DTNB are diluted together to 1 mM with substrate buffer (50 mM HEPES pH 7.5, 5 mM CaCl2) before use. The stock of enzyme is diluted with assay buffer (50 mM HEPES, pH 7.5, 5 mM CaCl2, 0.02% Brij) to the desired final concentration.
Alternatively, a fluorescent peptide substrate is used. In this assay, the peptide substrate contains a fluorescent group and a quenching group. Upon cleavage of the substrate by an MMP, the fluorescence that is generated is quantitated on the fluorescence plate reader. The assay is run in HCBC assay buffer (50mM HEPES, pH 7.0, 5 mM Ca^+2, 0.02% Brij, 0.5% Cysteine), with human recombinant MMP-1, MMP-9, or MMP-13. The substrate is dissolved in methanol and stored frozen in 1 mM aliquots. For the assay, substrate and enzymes are diluted in HCBC buffer to the desired concentrations. Compounds are added to the 96 well plate containing enzyme and the reaction is started by the addition of substrate.
For either the thiopeptide or fluorescent peptide assays, the slope of the line is calculated and represents the reaction rate. The linearity of the reaction rate is confirmed (r^2 >0.85). The mean (x±sem) of the control rate is calculated and compared for statistical significance (p<0.05) with drug-treated rates using Dunnett's multiple comparison test.

MMP-13 = MMP-13 (Homo sapiens, UniProt P45452); assay: MMP-13 inhibition (thiopeptide or fluorescent peptide substrate assay)
TACE = TACE (Homo sapiens, UniProt P78536); assay: TACE inhibition (fluorescent peptidyl substrate); details: for inhibition at 1 µM: at 1µM concentration
TACE, sequence (P78536 215-824): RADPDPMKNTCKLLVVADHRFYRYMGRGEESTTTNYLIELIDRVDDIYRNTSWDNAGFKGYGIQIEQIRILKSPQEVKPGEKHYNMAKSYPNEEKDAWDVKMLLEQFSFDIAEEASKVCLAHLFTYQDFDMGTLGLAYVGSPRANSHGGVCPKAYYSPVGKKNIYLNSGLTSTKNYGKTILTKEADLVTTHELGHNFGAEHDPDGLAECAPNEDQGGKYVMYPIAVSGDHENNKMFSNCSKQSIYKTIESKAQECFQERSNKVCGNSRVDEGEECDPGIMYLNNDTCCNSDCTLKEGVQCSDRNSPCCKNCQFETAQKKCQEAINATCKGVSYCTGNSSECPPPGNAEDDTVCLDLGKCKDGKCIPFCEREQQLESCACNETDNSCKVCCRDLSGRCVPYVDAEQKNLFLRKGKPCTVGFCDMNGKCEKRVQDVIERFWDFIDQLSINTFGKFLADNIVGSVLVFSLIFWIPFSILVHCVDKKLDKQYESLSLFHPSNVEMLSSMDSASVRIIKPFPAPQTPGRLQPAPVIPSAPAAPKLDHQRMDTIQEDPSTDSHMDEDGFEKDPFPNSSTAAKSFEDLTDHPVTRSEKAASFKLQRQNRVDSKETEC

MMP-9, sequence (P14780 94-707): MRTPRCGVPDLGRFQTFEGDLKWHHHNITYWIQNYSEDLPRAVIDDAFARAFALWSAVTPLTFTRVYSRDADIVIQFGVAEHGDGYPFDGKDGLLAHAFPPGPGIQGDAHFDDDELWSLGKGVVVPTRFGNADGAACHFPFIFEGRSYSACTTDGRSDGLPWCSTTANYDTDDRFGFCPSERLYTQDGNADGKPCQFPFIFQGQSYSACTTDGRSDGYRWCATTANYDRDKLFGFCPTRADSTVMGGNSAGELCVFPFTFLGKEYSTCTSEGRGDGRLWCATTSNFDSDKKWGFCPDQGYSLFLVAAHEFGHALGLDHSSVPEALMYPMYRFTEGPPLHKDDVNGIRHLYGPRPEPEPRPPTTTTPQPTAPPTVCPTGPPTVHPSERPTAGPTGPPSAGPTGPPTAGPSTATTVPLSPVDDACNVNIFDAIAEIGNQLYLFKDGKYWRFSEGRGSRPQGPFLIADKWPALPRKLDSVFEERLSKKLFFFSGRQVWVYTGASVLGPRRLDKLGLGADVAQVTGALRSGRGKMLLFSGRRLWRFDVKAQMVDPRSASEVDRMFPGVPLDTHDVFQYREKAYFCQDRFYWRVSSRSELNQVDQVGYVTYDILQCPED

Compound | IC50 (MMP-9; read-out: MMP-9 IC50) | IC50 (MMP-1; read-out: MMP-1 IC50) | IC50 (MMP-13; read-out: MMP-13 IC50) | IC50 (TACE; read-out: TACE IC50) | inhibition at 1 µM (TACE) | IC50 (MMP-13) | IC50 (TACE) | IC50 (MMP-9) | IC50 (MMP-1)
COc1ccc(S(=O)(=O)N(Cc2ccccc2Br)c2c(C)cc(C)cc2C(=O)NO)cc1 [Example 118, 2-[(2-Bromo-benzyl)-(4-methoxy-benzenesulfonyl)-amino]-N-hydroxy-3,5-dimethyl-benzamide] | 345 nM | 248 nM | 229 nM | > 1000 nM |  |  |  |  | 
COc1ccc(S(=O)(=O)N(Cc2cccc(Br)c2)c2c(C)cc(C)cc2C(=O)NO)cc1 [Example 119, 2-[(3-Bromo-benzyl)-(4-methoxy-benzenesulfonyl)-amino]-N-hydroxy-3,5-dimethyl-benzamide] | 27 nM | 223 nM | 14 nM | 252 nM |  |  |  |  | 
COc1ccc(S(=O)(=O)N(Cc2ccc(Br)cc2)c2c(C)cc(C)cc2C(=O)NO)cc1 [Example 120, 2-[(4-Bromo-benzyl)-(4-methoxy-benzenesulfonyl)-amino]-N-hydroxy-3,5-dimethyl-benzamide] | 18 nM | 238 nM | 39 nM | 310 nM |  |  |  |  | 
COc1ccc(S(=O)(=O)N(C)c2c(C)cc(C)cc2C(=O)NO)cc1 [Example 130, N-Hydroxy-2-[(4-methoxy-benzenesulfonyl)-methyl-amino]-3,5-dimethyl-benzamide] | 4 nM | 213 nM | 13 nM | 76 nM |  |  |  |  | 
CCN(c1c(C)cc(C)cc1C(=O)NO)S(=O)(=O)c1ccc(OC)cc1 [Example 131, 2-[Ethyl-(4-methoxy-benzenesulfonyl)-amino]-N-hydroxy-3,5-dimethyl-benzamide] | 54 nM | 212 nM | 48 nM | 80 nM |  |  |  |  | 
COc1ccc(S(=O)(=O)N(Cc2cccnc2)c2c(Br)cc(C)cc2C(=O)NO)cc1 [Example 138, 3-Bromo-N-hydroxy-2-[(4-methoxy-benzenesulfonyl)-pyridin-3-ylmethyl-amino]-5-methyl-benzamide] | 77 nM | 258 nM | 57 nM | 215 nM |  |  |  |  | 
COc1ccc(S(=O)(=O)N(Cc2ccccc2)c2c(C(=O)NO)cccc2[N+](=O)[O-])cc1 [Example 170, 2-[Benzyl-(4-methoxy-benzenesulfonyl)-amino]-N-hydroxy-3-nitro-benzamide] | 12 nM | 347 nM | 39 nM | 176 nM |  |  |  |  | 
COc1ccc(S(=O)(=O)N(Cc2ccccc2)c2c(OCCCO)cccc2C(=O)NO)cc1 [Example 174, 2-[Benzyl-(4-methoxy-benzenesulfonyl)-amino]-N-hydroxy 3-(3-hydroxy-propoxy)-benzamide] | 16 nM | 323 nM | 71 nM |  | 50% |  |  |  | 
COc1ccc(S(=O)(=O)N(Cc2cccnc2)c2c(C)cc(-c3cccs3)cc2C(=O)NO)cc1 [Example 175, N-Hydroxy-2-[(4-methoxybenzenesulfonyl)-pyridin-3-ylmethyl-amino]-3-methyl-5-thiophen-2-yl benzamide] | 7 nM | 90 nM | 4 nM | 57 nM |  |  |  |  | 
COc1ccc(S(=O)(=O)N(Cc2ccccc2)c2c(C#N)cc(C)cc2C(=O)NO)cc1 [Example 179] | 40 nM | 680 nM | 53 nM |  | 64% |  |  |  | 
COc1ccc(S(=O)(=O)N(Cc2cccnc2)c2c(C(=O)NO)cc(C)cc2-c2ccco2)cc1 [Example 186, 3-Furan-2-yl-N-hydroxy-2-[(4-methoxybenzenesulfonyl)-pyridin-3-ylmethylamino]-5-methyl-benzamide] | 13 nM | 37 nM |  |  |  | 1.4 nM | 61 nM |  | 
CCN(CC)Cc1cccc(C(=O)NO)c1N(C)S(=O)(=O)c1ccc(OC)cc1 [Example 191, 3-Diethylaminomethyl-N-hydroxy-2-[(4-methoxybenzenesulfonyl)-methylamino]benzamide] | 10 nM | 1240 nM | 67 nM | 210 nM |  |  |  |  | 
COc1ccc(S(=O)(=O)N(Cc2ccccc2)c2c(OC(C)(C)C(=O)NO)cccc2C(=O)NO)cc1 [Example 197] | 5 nM | 711 nM | 6 nM |  | 32% |  |  |  | 
COc1ccc(S(=O)(=O)N(Cc2ccccc2)c2c(Br)cccc2C(=O)NO)cc1 [Example 201, 3-Bromo-2-[benzyl-(4-methoxybenzenesulfonyl)amino]-N-hydroxy-benzamide] | 11 nM | 104 nM | 27 nM | 1000 nM |  |  |  |  | 
CCCCCCCCN(C)C(=O)C=Cc1cc(C)c(N(C)S(=O)(=O)c2ccc(OC)cc2)c(C(=O)NO)c1 [Example 207, N-Hydroxy-2-[(4-methoxy-benzenesulfonyl)-methyl-amino]-3-methyl-5-[2-(methyl-octyl-carbamoyl)-vinyl]-benzamide] | 2 nM | 1120 nM | 2.5 nM | 375 nM |  |  |  |  | 
CCCCCCCCN(C)C(=O)CCc1cc(C)c(N(C)S(=O)(=O)c2ccc(OC)cc2)c(C(=O)NO)c1 [Example 212, N-Hydroxy-2-[(4-methoxy-benzenesulfonyl)-methyl-amino]-3-methyl-5-[2-(methyl-octyl-carbamoyl)-ethyl]-benzamide] | 5.2 nM | 415 nM | 11 nM | 314 nM |  |  |  |  | 
COc1ccc(S(=O)(=O)N(C)c2c(C)cc(C=CC(=O)N(C)C)cc2C(=O)O)cc1 [Example 214, 5-(2-Dimethylcarbamoyl-vinyl)-2-[(4-methoxy-benzenesulfonyl)-methyl-amino]-3-methyl-benzoic acid] |  |  |  |  |  | 19 nM | 232 nM | 6.4 nM | 423 nM
CCN(Cc1ccncc1)C(=O)C=Cc1cc(C)c(N(C)S(=O)(=O)c2ccc(OC)cc2)c(C(=O)NO)c1 [Example 219, 5-[2-(Ethyl-pyridin-4-ylmethyl-carbamoyl)-vinyl]-N-hydroxy-2-[(4-methoxy-benzenesulfonyl)-methyl-amino]-3-methyl-benzamide] | 6.7 nM | 290 nM | 5.8 nM | 548 nM |  |  |  |  | 
CCCCCCCCN(C)C(=O)C=Cc1cc(C)c(N(Cc2cccnc2)S(=O)(=O)c2ccc(OC)cc2)c(C(=O)NO)c1 [Example 224, N-Hydroxy-2-[(4-methoxy-benzenesulfonyl)-pyridin-3-ylmethyl-amino]-3-methyl-5-[2-(methyl-octyl-carbamoyl)-vinyl]-benzamide] | 11 nM | 957 nM | 14 nM | 715 nM |  |  |  |  | 
COc1ccc(S(=O)(=O)N(Cc2cccnc2)c2c(C)cc(C=CC(=O)N(C)C)cc2C(=O)NO)cc1 [Example 227, 5-(2-Dimethylcarbamoyl-vinyl)-N-hydroxy-2-[(4-methoxy-benzenesulfonyl)-pyridin-3-ylmethyl-amino]-3-methyl-benzamide] | 3.1 nM | 193 nM | 4.1 nM | 446 nM |  |  |  |  | 
CCN(C(=O)C=Cc1cc(C)c(N(Cc2cccnc2)S(=O)(=O)c2ccc(OC)cc2)c(C(=O)NO)c1)c1ccccc1 [Example 230, 5-[2-(Ethyl-phenyl-carbamoyl)-vinyl]-N-hydroxy-2-[(4-methoxy-benzenesulfonyl)-pyridin-3-ylmethyl-amino]-3-methyl-benzamide] | 2.4 nM | 20 nM | 1.9 nM |  | 47% |  |  |  | 
C=CCN(CC=C)C(=O)C=Cc1cc(C)c(N(Cc2cccnc2)S(=O)(=O)c2ccc(OC)cc2)c(C(=O)NO)c1 [Example 233, 5-(2-Diallylcarbamoyl-vinyl)-N-hydroxy-2-[(4-methoxy-benzenesulfonyl)-pyridin-3-ylmethyl-amino]-3-methyl-benzamide] | 2.3 nM | 32 nM | 1.8 nM | 450 nM |  |  |  |  | 
COc1ccc(S(=O)(=O)N(Cc2cccnc2)c2c(C)cc(C=CC(=O)N3CCOCC3)cc2C(=O)NO)cc1 [Example 240] | 3.5 nM | 86 nM | 1.6 nM | 548 nM |  |  |  |  | 
COc1ccc(S(=O)(=O)N(Cc2cccnc2)c2c(C)cc(-c3ccccc3C=NO)cc2C(=O)NO)cc1 [Example 243, 2'-(Hydroxyimino-methyl)-4-[(4-methoxy-benzenesulfonyl)-pyridin-3-ylmethyl-amino]-5-methyl-biphenyl-3-carboxylic acid hydroxyamide] | 6.6 nM | 528 nM | 3.1 nM | 66 nM |  |  |  |  | 
COc1ccc(S(=O)(=O)N(Cc2cccnc2)c2c(C)cc(-c3cccc(C=NO)c3)cc2C(=O)NO)cc1 [Example 246, 3'-(Hydroxyimino-methyl)-4-[(4-methoxy-benzenesulfonyl)-pyridin-3-ylmethyl-amino]-5-methyl-biphenyl-3-carboxylic acid hydroxyamide] | 6 nM | 106 nM | 3.6 nM | 56 nM |  |  |  |  | 
COc1ccc(S(=O)(=O)N(Cc2cccnc2)c2c(C)cc(-c3ccc(C=NO)cc3)cc2C(=O)NO)cc1 [Example 249, 4'-(Hydroxyimino-methyl)-4-[(4-methoxy-benzenesulfonyl)-pyridin-3-ylmethyl-amino]-5-methyl-biphenyl-3-carboxylic acid hydroxyamide] | 2.8 nM | 231 nM | 6 nM | 100 nM |  |  |  |  | 
